Measured values published in US8273890B2 (4SC AG, priority 2007, dated 2012).

Test system: not given
Assay: not given
Conditions: not given

melting point | SMILES
226 to 227 °C (dec.) | NC(=O)c1sc(-n2cnc3cnccc32)cc1OCc1ccccc1C(F)(F)F [Example 2, 5-(1H-Imidazo[4,5-c]pyridin-1-yl)-3-{[2-(trifluoromethyl)benzyl]oxy}thio-phene-2-carboxamide]
248 to 249 °C (dec.) | NC(=O)c1sc(-n2cnc3cnc(Cl)cc32)cc1OCc1ccccc1C(F)(F)F [Example 1, 5-(6-Chloro-1H-imidazo[4,5-c]pyridin-1-yl)-3-{[2-(trifluoromethyl)benzyl]oxy}thiophene-2-carboxamide]

Biological target: T1, recombinant Plk1 protein (Homo sapiens, UniProt P53350)
T1 construct: histidine tag (N); made in house; host or cells: SF9 insect cells
Assay: Plk1 kinase activity inhibition assay (33P-ATP, alpha casein substrate, flash plates)
Type: biochemical
Conditions: enzymatic assay, 100 nM Li-ATP, 80 minutes at 30° C.
Procedure, shortened: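 IC50 derived from radioactive flash-plate counts of 33P-labelled alpha casein after 80 min at 30 °C. Reaction: 100 nM 33P-containing ATP, 50–100 ng His-tagged Plk1 (SF9-expressed), 500 ng casein per well, HEPES pH 7.5 buffer with MgCl2/MnCl2.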

T1 sequence (P53350 whole entry): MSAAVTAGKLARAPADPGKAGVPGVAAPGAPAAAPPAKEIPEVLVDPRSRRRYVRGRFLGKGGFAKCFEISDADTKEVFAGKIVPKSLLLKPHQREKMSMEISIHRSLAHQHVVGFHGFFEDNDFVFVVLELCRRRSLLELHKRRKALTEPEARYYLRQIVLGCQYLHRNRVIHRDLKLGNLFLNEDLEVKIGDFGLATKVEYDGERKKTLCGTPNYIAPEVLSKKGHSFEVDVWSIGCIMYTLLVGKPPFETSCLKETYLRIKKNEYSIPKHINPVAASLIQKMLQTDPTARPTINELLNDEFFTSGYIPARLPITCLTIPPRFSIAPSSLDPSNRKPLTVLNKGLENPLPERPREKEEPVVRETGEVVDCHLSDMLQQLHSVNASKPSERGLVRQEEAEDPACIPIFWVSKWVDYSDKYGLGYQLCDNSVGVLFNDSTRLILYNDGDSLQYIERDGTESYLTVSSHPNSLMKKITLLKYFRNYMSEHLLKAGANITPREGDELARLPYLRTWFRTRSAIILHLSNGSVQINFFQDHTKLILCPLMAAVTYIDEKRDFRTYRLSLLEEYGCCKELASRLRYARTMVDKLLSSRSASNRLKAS

SMILES | IC50 [nM]
NC(=O)c1sc(-n2cnc3cnccc32)cc1OCc1ccccc1C(F)(F)F [Example 2, 5-(1H-Imidazo[4,5-c]pyridin-1-yl)-3-{[2-(trifluoromethyl)benzyl]oxy}thio-phene-2-carboxamide] | 10 to 100
NC(=O)c1sc(-n2cnc3cnc(Cl)cc32)cc1OCc1ccccc1C(F)(F)F [Example 1, 5-(6-Chloro-1H-imidazo[4,5-c]pyridin-1-yl)-3-{[2-(trifluoromethyl)benzyl]oxy}thiophene-2-carboxamide] | 10 to 100
COCCNC(=O)c1cc2c(cn1)ncn2-c1cc(OCc2ccccc2C(F)(F)F)c(C(N)=O)s1 [Example 4, 1-(5-Carbamoyl-4-{[2-(trifluoromethyl)benzyl]oxy}-2-thienyl)-N-(2-methoxyethyl)-1H-imidazo[4,5-c]pyridine-6-carboxamide] | 100 to 1000
C[C@@H](Oc1cc(-n2cnc3cnc(CN4CCN(CCN(C)C)CC4)cc32)sc1C(N)=O)c1ccccc1F [Example 136, 5-[6-({4-[2-(dimethylamino)ethyl]piperazin-1-yl}methyl)-1H-imidazo[4,5-c]pyridin-1-yl]-3-[(1R)-1-(2-fluorophenyl)ethoxy]thiophene-2-carboxamide] | 100 to 1000
CC(=O)N1CCCN(Cc2cc3c(cn2)ncn3-c2cc(O[C@H](C)c3ccccc3C(F)(F)F)c(C(N)=O)s2)CC1 [Example 81, 5-{6-[(4-acetyl-1,4-diazepan-1-yl)methyl]-1H-imidazo[4,5-c]pyridin-1-yl}-3-{(1R)-1-[2-(trifluoromethyl)phenyl]ethoxy}thiophene-2-carboxamide] | 10 to 100
C[C@@H](Oc1cc(-n2cnc3cnc(CN4CCN(C(=O)C(F)(F)F)CC4)cc32)sc1C(N)=O)c1ccccc1C(F)(F)F [Example 159, 5-(6-{[4-(trifluoroacetyl)piperazin-1-yl]methyl}-1H-imidazo[4,5-c]pyridin-1-yl)-3-{(1R)-1-[2-(trifluoromethyl)phenyl]ethoxy}thiophene-2-carboxamide] | 10 to 100
C[C@@H](Oc1cc(-n2cnc3cnc(CN4CCN(c5ncccn5)CC4)cc32)sc1C(N)=O)c1ccccc1C(F)(F)F [Example 77, 5-{6-[(4-pyrimidin-2-ylpiperazin-1-yl)methyl]-1H-imidazo[4,5-c]pyridin-1-yl}-3-{(1R)-1-[2-(trifluoromethyl)phenyl]ethoxy}thiophene-2-carboxamide] | 10 to 100
CCC(Oc1cc(-n2cnc3cnc(CO)cc32)sc1C(N)=O)c1ccccc1Cl (stereo not shown) [Example 56, 3-{[1-(2-chlorophenyl)propyl]oxy}-5-[6-(hydroxymethyl)-1H-imidazo[4,5-c]pyridin-1-yl]thiophene-2-carboxamide] | < 10
C[C@@H](Oc1cc(-n2cnc3cnc(CN4CCN(CCO)CC4)cc32)sc1C(N)=O)c1ccccc1Cl [Example 127, 3-[(1R)-1-(2-chlorophenyl)ethoxy]-5-(6-{[4-(2-hydroxyethyl)piperazin-1-yl]methyl}-1H-imidazo[4,5-c]pyridin-1-yl)thiophene-2-carboxamide] | < 10
CC(Oc1cc(-n2cnc3cnc(CO)cc32)sc1C(N)=O)c1ccc(F)cc1C(F)(F)F (stereo not shown) [Example 51, 3-{1-[4-fluoro-2-(trifluoromethyl)phenyl]ethoxy}-5-[6-(hydroxymethyl)-1H-imidazo[4,5-c]pyridin-1-yl]thiophene-2-carboxamide] | < 10
C[C@@H](Oc1cc(-n2cnc3cnc(CN4CCN(CC(=O)N5CCCC5)CC4)cc32)sc1C(N)=O)c1ccccc1C(F)(F)F [Example 145, 5-(6-{[4-(2-oxo-2-pyrrolidin-1-ylethyl)piperazin-1-yl]methyl}-1H-imidazo[4,5-c]pyridin-1-yl)-3-{(1R)-1-[2-(trifluoromethyl)phenyl]ethoxy}thiophene-2-carboxamide] | 10 to 100
CC(Oc1cc(-n2cnc3cnc(CN4CCN(C)CC4)cc32)sc1C(N)=O)c1ccccc1OC(F)F (stereo not shown) [Example 99, 3-{1-[2-(difluoromethoxy)phenyl]ethoxy}-5-{6-[(4-methylpiperazin-1-yl)methyl]-1H-imidazo[4,5-c]pyridin-1-yl}thiophene-2-carboxamide] | < 10
CC(Oc1cc(-n2cnc3ccncc32)sc1C(N)=O)c1ccccc1Cl (stereo not shown) [Example 12, 3-[1-(2-Chlorophenyl)ethoxy]-5-(3H-imidazo[4,5-c]pyridin-3-yl)thio-phene-2-carboxamide] | < 10
C[C@@H](Oc1cc(-n2cnc3cnc(CN4CCN(CCN5CCOCC5)CC4)cc32)sc1C(N)=O)c1ccccc1C(F)(F)F [Example 80, 5-(6-{[4-(2-morpholin-4-ylethyl)piperazin-1-yl]methyl}-1H-imidazo[4,5-c]pyridin-1-yl)-3-{(1R)-1-[2-(trifluoromethyl)phenyl]ethoxy}thiophene-2-carboxamide] | 10 to 100
CN(CCN1CCOCC1)C(=O)c1cc2c(cn1)ncn2-c1cc(OCc2ccccc2C(F)(F)F)c(C(N)=O)s1 [Example 11, 1-(5-Carbamoyl-4-{[2-(trifluoromethyl)benzyl]oxy}-2-thienyl)-N-methyl-N-(2-morpholin-4-ylethyl)-1H-imidazo[4,5-c]pyridine-6-carboxamide] | 1000 to 10000
CC1CN(Cc2cc3c(cn2)ncn3-c2cc(O[C@H](C)c3ccccc3C(F)(F)F)c(C(N)=O)s2)CCN1C (stereo partly drawn) [Example 74, 5-{6-[(3,4-dimethylpiperazin-1-yl)methyl]-1H-imidazo[4,5-c]pyridin-1-yl}-3-{(1R)-1-[2-(trifluoromethyl)phenyl]ethoxy}thiophene-2-carboxamide] | < 10
C[C@@H](Oc1cc(-n2cnc3cnc(CNCCN4CCN(C)CC4)cc32)sc1C(N)=O)c1ccccc1C(F)(F)F [Example 88, 5-[6-({[2-(4-methylpiperazin-1-yl)ethyl]amino}methyl)-1H-imidazo[4,5-c]pyridin-1-yl]-3-{(1R)-1-[2-(trifluoromethyl)phenyl]ethoxy}thiophene-2-carboxamide] | 10 to 100
CC(Oc1cc(-n2cnc3cnc(CO)cc32)sc1C(N)=O)c1ccccc1OC(F)F (stereo not shown) [Example 53] | < 10

More lines, now with the values ahead:

IC50 [nM] | SMILES
10 to 100 | NC(=O)c1sc(-n2cnc3ccncc32)cc1OCc1ccccc1OC(F)(F)F [Example 29, 5-(3H-imidazo[4,5-c]pyridin-3-yl)-3-{[2-(trifluoromethoxy)benzyl]oxy}thiophene-2-carboxamide]
< 10 | C[C@@H](Oc1cc(-n2cnc3cnc(CO)cc32)sc1C(N)=O)c1ccccc1C(F)(F)F [Example 25, 5-[6-(hydroxymethyl)-1H-imidazo[4,5-c]pyridin-1-yl]-3-{(1R)-1-[2-(trifluoromethyl)phenyl]ethoxy}thiophene-2-carboxamide]
10 to 100 | C[C@@H](Oc1cc(-n2cnc3cnc(CN4CCN(CCC#N)CC4)cc32)sc1C(N)=O)c1ccccc1C(F)(F)F [Example 82, 5-(6-{[4-(2-cyanoethyl)piperazin-1-yl]methyl}-1H-imidazo[4,5-c]pyridin-1-yl)-3-{(1R)-1-[2-(trifluoromethyl)phenyl]ethoxy}thiophene-2-carboxamide]
< 10 | C[C@@H](Oc1cc(-n2cnc3cnc(CN4CCN(C)CC4)cc32)sc1C(N)=O)c1ccccc1Cl [Example 100, 3-[(1R)-1-(2-chlorophenyl)ethoxy]-5-{6-[(4-methylpiperazin-1-yl)methyl]-1H-imidazo[4,5-c]pyridin-1-yl}thiophene-2-carboxamide]
100 to 1000 | CC(Oc1cc(-n2cnc3cc(CNC4CCC4)ncc32)sc1C(N)=O)c1ccccc1C(F)(F)F (stereo not shown) [Example 111, 5-{6-[(cyclobutylamino)methyl]-3H-imidazo[4,5-c]pyridin-3-yl}-3-{-1-[2-(trifluoromethyl)phenyl]ethoxy}thiophene-2-carboxamide]
< 10 | C[C@@H](Oc1cc(-n2cnc3cnc(CN4CCN(CCCO)CC4)cc32)sc1C(N)=O)c1ccccc1C(F)(F)F [Example 108, 5-(6-{[4-(3-hydroxypropyl)piperazin-1-yl]methyl}-1H-imidazo[4,5-c]pyridin-1-yl)-3-{(1R)-1-[2-(trifluoromethyl)phenyl]ethoxy}thiophene-2-carboxamide]
10 to 100 | C[C@@H](Oc1cc(-n2cnc3cnc(CN4CCC(N5CCN(C)CC5)CC4)cc32)sc1C(N)=O)c1ccccc1C(F)(F)F [Example 89, 5-(6-{[4-(4-methylpiperazin-1-yl)piperidin-1-yl]methyl}-1H-imidazo[4,5-c]pyridin-1-yl)-3-{(1R)-1-[2-(trifluoromethyl)phenyl]ethoxy}thiophene-2-carboxamide]
1000 to 10000 | CC(Oc1cc(-n2cnc3cc(CNC4CCN(C)CC4)ncc32)sc1C(N)=O)c1ccccc1F (stereo not shown) [Example 156, 3-[-1-(2-fluorophenyl)ethoxy]-5-(6-{[(1-methylpiperidin-4-yl)amino]methyl}-3H-imidazo[4,5-c]pyridin-3-yl)thiophene-2-carboxamide]
